# Assay results: PubChem BioAssay (NCI)
#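 Dose response: 5 concentrations. Exposure: 48 h. Format: 96-well plates. Endpoint: linear interpolation; highest concentration if not reached. TGI is the concentration that stops growth completely.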 Where a SMILES comes first, the peptide text is derived from it. Bridges are numbered along the chain shown (N, C = ends). [ ]: non-standard residue; d: D form. The star is where a group is joined. Cbz = O=C(OCc1ccccc1)*; Aib = CC(C)(N)C(=O)O; OBn = c1ccc(CO*)cc1; βAla = NCCC(=O)O
# System: SR leukemia
# Experiment: DTP human tumour cell line panel, 48 h
row,SMILES,TGI [µM]
1,CCCN=C(NC(=O)c1ccc(Cl)cc1)SC,> 100
2,COc1ccc(-c2c(C#N)c(NC(=S)NC(=O)c3ccccc3)nc3c2CCCC3)cc1OC,> 100
3,c1ccc2c(c1)nc1n2CNCC1,> 100

# System: MALME-3M melanoma
# Experiment: DTP human tumour cell line panel, 48 h
row,SMILES,TGI [µM]
1,CC(=O)OC[C@H]1[C@@H]2C(CC[C@]13CO3)OC(=O)CC(C)[C@]2(C)CCc1ccoc1 (some centres undefined),> 100
2,CCOC(=O)C(=C(SC)SC)c1nn2c(=O)cc(C)nc2s1,32.3
3,CCCN=C(NC(=O)c1ccc(Cl)cc1)SC,> 100
4,COc1ccc(-c2c(C#N)c(NC(=S)NC(=O)c3ccccc3)nc3c2CCCC3)cc1OC,> 100
5,Cc1c(Cc2ccccc2)n(COCCCO)c(=O)[nH]c1=O,> 100
6,CC1(C)NC(=O)C(NC(=O)C(CC(=O)OCc2ccccc2)NC(=O)OCc2ccccc2)CCCCNC(=O)CCNC1=O (centres undefined) (Cbz-D(OBn)K[Aib][βAla]; lactam 2-C; configuration not given here),> 100
7,c1ccc2c(c1)nc1n2CNCC1,> 100

# System: HL-60(TB) leukemia
# Experiment: DTP human tumour cell line panel, 48 h
row,SMILES,TGI [µM]
1,CC(=O)OC[C@H]1[C@@H]2C(CC[C@]13CO3)OC(=O)CC(C)[C@]2(C)CCc1ccoc1 (some centres undefined),> 100
2,CCOC(=O)C(=C(SC)SC)c1nn2c(=O)cc(C)nc2s1,37.6
3,CCCN=C(NC(=O)c1ccc(Cl)cc1)SC,> 100
4,COc1ccc(-c2c(C#N)c(NC(=S)NC(=O)c3ccccc3)nc3c2CCCC3)cc1OC,> 100
5,CC1(C)NC(=O)C(NC(=O)C(CC(=O)OCc2ccccc2)NC(=O)OCc2ccccc2)CCCCNC(=O)CCNC1=O (centres undefined) (Cbz-D(OBn)K[Aib][βAla]; lactam 2-C; configuration not given here),> 100
6,c1ccc2c(c1)nc1n2CNCC1,> 100

# System: OVCAR-3 ovarian
# Experiment: DTP human tumour cell line panel, 48 h
row,SMILES,TGI [µM]
1,CC(=O)OC[C@H]1[C@@H]2C(CC[C@]13CO3)OC(=O)CC(C)[C@]2(C)CCc1ccoc1 (some centres undefined),> 100
2,CCOC(=O)C(=C(SC)SC)c1nn2c(=O)cc(C)nc2s1,35
3,CCCN=C(NC(=O)c1ccc(Cl)cc1)SC,> 100
4,COc1ccc(-c2c(C#N)c(NC(=S)NC(=O)c3ccccc3)nc3c2CCCC3)cc1OC,> 100
5,Cc1c(Cc2ccccc2)n(COCCCO)c(=O)[nH]c1=O,> 100
6,CC1(C)NC(=O)C(NC(=O)C(CC(=O)OCc2ccccc2)NC(=O)OCc2ccccc2)CCCCNC(=O)CCNC1=O (centres undefined) (Cbz-D(OBn)K[Aib][βAla]; lactam 2-C; configuration not given here),> 100
7,c1ccc2c(c1)nc1n2CNCC1,> 100

# System: SNB-19 CNS
# Experiment: DTP human tumour cell line panel, 48 h
row,SMILES,TGI [µM]
1,CC(=O)OC[C@H]1[C@@H]2C(CC[C@]13CO3)OC(=O)CC(C)[C@]2(C)CCc1ccoc1 (some centres undefined),> 100
2,CCOC(=O)C(=C(SC)SC)c1nn2c(=O)cc(C)nc2s1,86
3,CCCN=C(NC(=O)c1ccc(Cl)cc1)SC,> 100
4,COc1ccc(-c2c(C#N)c(NC(=S)NC(=O)c3ccccc3)nc3c2CCCC3)cc1OC,> 100
5,Cc1c(Cc2ccccc2)n(COCCCO)c(=O)[nH]c1=O,> 100
6,CC1(C)NC(=O)C(NC(=O)C(CC(=O)OCc2ccccc2)NC(=O)OCc2ccccc2)CCCCNC(=O)CCNC1=O (centres undefined) (Cbz-D(OBn)K[Aib][βAla]; lactam 2-C; configuration not given here),> 100
7,c1ccc2c(c1)nc1n2CNCC1,> 100

# System: A549 NSCLC
# Experiment: DTP human tumour cell line panel, 48 h
row,SMILES,TGI [µM]
1,CC(=O)OC[C@H]1[C@@H]2C(CC[C@]13CO3)OC(=O)CC(C)[C@]2(C)CCc1ccoc1 (some centres undefined),> 100
2,CCOC(=O)C(=C(SC)SC)c1nn2c(=O)cc(C)nc2s1,> 100
3,CCCN=C(NC(=O)c1ccc(Cl)cc1)SC,> 100
4,COc1ccc(-c2c(C#N)c(NC(=S)NC(=O)c3ccccc3)nc3c2CCCC3)cc1OC,> 100
5,Cc1c(Cc2ccccc2)n(COCCCO)c(=O)[nH]c1=O,> 100
6,CC1(C)NC(=O)C(NC(=O)C(CC(=O)OCc2ccccc2)NC(=O)OCc2ccccc2)CCCCNC(=O)CCNC1=O (centres undefined) (Cbz-D(OBn)K[Aib][βAla]; lactam 2-C; configuration not given here),> 100
7,c1ccc2c(c1)nc1n2CNCC1,> 100

# System: M14 melanoma
# Experiment: DTP human tumour cell line panel, 48 h
row,SMILES,TGI [µM]
1,CC(=O)OC[C@H]1[C@@H]2C(CC[C@]13CO3)OC(=O)CC(C)[C@]2(C)CCc1ccoc1 (some centres undefined),> 100
2,CCOC(=O)C(=C(SC)SC)c1nn2c(=O)cc(C)nc2s1,29.4
3,CCCN=C(NC(=O)c1ccc(Cl)cc1)SC,> 100
4,COc1ccc(-c2c(C#N)c(NC(=S)NC(=O)c3ccccc3)nc3c2CCCC3)cc1OC,> 100
5,Cc1c(Cc2ccccc2)n(COCCCO)c(=O)[nH]c1=O,> 100
6,CC1(C)NC(=O)C(NC(=O)C(CC(=O)OCc2ccccc2)NC(=O)OCc2ccccc2)CCCCNC(=O)CCNC1=O (centres undefined) (Cbz-D(OBn)K[Aib][βAla]; lactam 2-C; configuration not given here),> 100
7,c1ccc2c(c1)nc1n2CNCC1,> 100

# System: T-47D breast
# Experiment: DTP human tumour cell line panel, 48 h
row,SMILES,TGI [µM]
1,CC(=O)OC[C@H]1[C@@H]2C(CC[C@]13CO3)OC(=O)CC(C)[C@]2(C)CCc1ccoc1 (some centres undefined),> 100
2,CCOC(=O)C(=C(SC)SC)c1nn2c(=O)cc(C)nc2s1,34.1
3,CCCN=C(NC(=O)c1ccc(Cl)cc1)SC,> 100
4,COc1ccc(-c2c(C#N)c(NC(=S)NC(=O)c3ccccc3)nc3c2CCCC3)cc1OC,89
5,Cc1c(Cc2ccccc2)n(COCCCO)c(=O)[nH]c1=O,> 100
